Measured values published in patent US20030153585A1, “Pharmaceutical preparations containing 2-pyrrolidone as the dissolving intermediary” (priority 2000, published 2003).
Converted amounts (≈) assume the structure as drawn.

Assay: physchem
Settings: water

solubility: 2 µg/mL (≈ 4.7 µM)
Structure (SMILES): COc1ccc(C(=O)N2CCCc3cc(C4=NNC(=O)SC4C)ccc32)cc1OC (stereo not shown) [thiadiazinone, 5-[1-(3,4-dimethoxybenzoyl)-1,2,3,4-tetrahydroquinolin-6-yl]-6-methyl-3,6-dihydro-1,3,4-thiadiazin-2-one]
